Assay results as given in the supplement of paper PMC10307832.

Key:
Experiment in all cases: relative viability (nuclei count vs DMSO), 5 days (fraction); higher = more cells survive
[1] = compound: O[C@H]1CC[C@H](Nc2ncc3nc(Nc4c(F)cc(F)cc4F)n([C@H]4CCOC4)c3n2)CC1 [Tanzisertib] + CC(=O)c1c(C)c2cnc(Nc3ccc(N4CCNCC4)cn3)nc2n(C2CCCC2)c1=O [Palbociclib] (partner 0.5 µM)
Method in brief: (§1)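 Lung cancer cell lines in 1536-well plates got either a single drug or a fixed anchor-drug dose together with five library-drug doses (not always all listed) in √10 steps, by pin tool, on the day after seeding. Nuclei were counted after 5 days, and relative viability is the treated-to-vehicle ratio of nuclei counts. Values are medians of duplicate plates.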

[2] = compound: C1CNCCC1C2=CC(=NN2)C3=CC=NC=C3 + CS(=O)(=O)CCNCc1ccc(-c2ccc3ncnc(Nc4ccc(OCc5cccc(F)c5)c(Cl)c4)c3c2)o1 [Lapatinib] (partner 2 µM)
Method in brief: as §1

Tanzisertib + Trametinib = compound: O[C@H]1CC[C@H](Nc2ncc3nc(Nc4c(F)cc(F)cc4F)n([C@H]4CCOC4)c3n2)CC1 [Tanzisertib] + CC(=O)Nc1cccc(-n2c(=O)n(C3CC3)c(=O)c3c(Nc4ccc(I)cc4F)n(C)c(=O)c(C)c32)c1 [Trametinib] (partner 0.02 µM)
Method in brief: as §1

Tanzisertib + Crizotinib = compound: O[C@H]1CC[C@H](Nc2ncc3nc(Nc4c(F)cc(F)cc4F)n([C@H]4CCOC4)c3n2)CC1 [Tanzisertib] + C[C@@H](Oc1cc(-c2cnn(C3CCNCC3)c2)cnc1N)c1c(Cl)ccc(F)c1Cl [Crizotinib] (partner 1 µM)
Method in brief: as §1

Cell Line	relative viability ([1]; first compound 0.08 µM)	relative viability ([1]; first compound 0.253 µM)	relative viability ([1]; first compound 0.8 µM)	relative viability ([1]; first compound 2.53 µM)	relative viability ([1]; first compound 8 µM)	relative viability ([2]; first compound 0.08 µM)	relative viability ([2]; first compound 0.8 µM)	relative viability ([2]; first compound 2.53 µM)	relative viability ([2]; first compound 8 µM)	relative viability (Tanzisertib + Trametinib; first compound 0.08 µM)	relative viability (Tanzisertib + Trametinib; first compound 0.253 µM)	relative viability (Tanzisertib + Trametinib; first compound 0.8 µM)	relative viability (Tanzisertib + Trametinib; first compound 2.53 µM)	relative viability (Tanzisertib + Trametinib; first compound 8 µM)	relative viability (Tanzisertib + Crizotinib; first compound 0.08 µM)	relative viability (Tanzisertib + Crizotinib; first compound 0.253 µM)	relative viability (Tanzisertib + Crizotinib; first compound 0.8 µM)	relative viability (Tanzisertib + Crizotinib; first compound 2.53 µM)	relative viability (Tanzisertib + Crizotinib; first compound 8 µM)
NCI-H1437	0.333	0.291	0.315	0.32	0.262	0.765	0.912	0.827	0.769	0.588	0.481	0.512	0.558	0.43	1.07	0.89	0.94	1.01	0.919
SK-MES-1	0.327	0.314	0.345	0.298	0.281	0.423	0.381	0.439	0.421	0.618	0.549	0.54	0.493	0.385	0.986	0.97	0.961	0.965	0.916
NCI-H2405	0.508	0.502	0.55	0.546	0.47	1.12	1.01	1.12	1.16	0.766	0.559	0.565	0.52	0.44	0.935	0.825	0.828	0.916	0.789
NCI-H2023	0.335	0.406	0.406	0.325	0.328	0.615	0.909	1.03	0.974	0.571	0.538	0.517	0.439	0.499	0.568	0.651	0.684	0.607	0.567
NCI-H838	0.233	0.225	0.219	0.228	0.198	0.906	0.97	1.07	0.895	0.705	0.566	0.506	0.529	0.49	0.892	0.849	0.875	0.88	0.885
NCI-H661	0.424	0.406	0.423	0.386	0.415	0.466	0.475	0.479	0.55	0.684	0.574	0.55	0.647	0.54	1.04	0.939	–	1.02	0.991
NCI-H1734	0.361	0.335	0.321	0.343	0.354	0.856	1.07	1.15	1.07	0.652	0.669	0.709	0.681	0.721	0.743	0.658	0.72	0.738	0.599
NCI-H1650	0.297	0.326	0.404	0.351	0.314	0.561	0.751	0.821	0.736	0.458	0.689	0.609	0.532	0.415	1	1.06	1.07	0.914	0.803
